# Measurements as given in paper PMC6152791, “Synthesis and Evaluation of Novel 2-Pyrrolidone-Fused (2-Oxoindolin-3-ylidene)methylpyrrole Derivatives as Potential Multi-Target Tyrosine Kinase Receptor Inhibitors” (Molecules : A Journal of Synthetic Chemistry and Natural …, 2017).
# How the values were obtained:
# HUVECs = assay: In vitro VEGF-induced tube formation assay (Kurabo angiogenesis kit); format: cell-based, human; settings: for IC50: Homo sapiens, HUVEC, 264 h, VEGF 10 ng/mL, 11 days, read-out: IC50 of Tube Area
# Method: Angiogenesis Kit (Kurabo, Neyagawa, Osaka, Japan) was used in accordance with the manufacturer’s protocols. Briefly, HUVECs and fibroblasts were co-cultured in 24-well plates with basal medium or solvent control medium (basal medium containing 1.0% DMSO) or solvent control medium containing 9, 10, 11, and 12 (0.50 μM, 0.25 μM and 0.10 μM). The medium renewals with or without agent in cultures were conducted every 3 days. After 11 days HUVECs were fixed and stained with anti-CD31 antibody in line with the manufacturer’s protocols. The tube formation area were measured using Angiogenesis Image Analyzer (Kurabo, Neyagawa, Osaka, Japan) with suaramin (70 μM) as positive control.
# Detroit 551 = assay: Cell proliferation assay (MTT) on normal fibroblasts; format: cell-based; settings: Homo sapiens, 72 h incubation, normal fibroblast cells
# Method: The HCT116 (human colon cancer cells, BCRC 60349) and Detroit 551 (human normal fibroblast cells, BCRC 60118) were maintained in DMEM (Gibco, Grand Island, NY, USA) containing 10% FBS (HyClone, Logan, UT, USA). NCI-H460 (BCRC 60373) and 786-O (BCRC 60243) were maintained in RPMI 1640 (Gibco, Grand Island, NY, USA) containing 10% FBS (HyClone, Logan, UT, USA). They were incubated at 37 °C in a 5% CO2 atmosphere.
# The cells incubated as above were plated at a density of 2000 cells/well (cancer cells) or 10,000 cells/well (Detroit 551) on a 96-well plate for 24 h; serial dilutions of indicated compounds were added and incubated for additional 72 h. At the end of the incubation, cell viability was determined by 3-(4,5-dimethylthiazol-2-yl)-2,5-diphenyl tetrazolium bromide (MTT). The MTT formazan crystals were dissolved by DMSO, and the absorbance at 570 nm using a microplate spectrophotometer (Thermo Fisher Scientific, Waltham, MA, USA).
# aurora A = target: T1, aurora A (Homo sapiens, UniProt O14965); assay: In vitro kinase assay (HotSpot, 33P); format: biochemical; settings: 1.0 μM compound, ATP 10.0 μM
# T1 construct: purchased Reaction Biology Corporation
# T1 sequence (O14965 1-403): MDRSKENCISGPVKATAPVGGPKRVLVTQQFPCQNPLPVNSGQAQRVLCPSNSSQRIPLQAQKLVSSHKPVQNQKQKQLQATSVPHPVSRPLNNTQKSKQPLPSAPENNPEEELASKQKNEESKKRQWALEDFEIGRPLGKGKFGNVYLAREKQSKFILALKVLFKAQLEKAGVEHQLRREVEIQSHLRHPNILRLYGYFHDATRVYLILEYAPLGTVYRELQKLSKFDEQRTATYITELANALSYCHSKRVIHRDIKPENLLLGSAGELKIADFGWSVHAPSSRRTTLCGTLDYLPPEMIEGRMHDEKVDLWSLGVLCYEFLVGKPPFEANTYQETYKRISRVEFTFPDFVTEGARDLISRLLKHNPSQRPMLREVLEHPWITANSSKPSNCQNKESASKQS
# Method: […]. Briefly, specific kinase and substrate and required cofactors were prepared in reaction buffer. Test compounds were added into the reaction, after 20 min, a mixture of ATP (Sigma, St. Louis, MO, USA) and ^33P ATP (Perkin Elmer, Waltham, MA, USA) was added to make a final concentration of 10.0 μM. Reactions were stood at room temperature for 120 min, and spot the reactions onto P81 ion exchange filter paper (Whatman Inc., Piscataway, NJ, USA). Unbound phosphate was removed by extensive washing of filters in 0.1% phosphoric acid. Kinase activity data was reported as the percent remaining kinase activity in test compounds compared to solvent control (DMSO).
# HCT116 cells = assay: Cell cycle profile by image cytometry; format: cell-based, human; settings: 24 h
# Method: Cell cycle profiles of HCT116 cells were determined with an NC-3000 image cytometer (ChemoMetec, Allerod, Denmark) in accordance with manufacturer’s protocol. Briefly, cells were seeded at 200,000 cells/well on a 6-well plate for 24 h. […] After incubation for 24 h, 100,000 cells were harvested and centrifuged for 5 min at 400 g at room temperature, washed once with PBS […] and resuspended with 50 μL of lysis buffer (ChemoMetec, Allerod, Denmark) containing 10 μg/mL of 2-(4-amidinophenyl)-1H-indole-6-carboxamidine (DAPI, ChemoMetec, Allerod, Denmark). The cells were incubated at 37 °C for 5 min, 50 μL of stabilization buffer (ChemoMetec, Allerod, Denmark) was added to the solution, and the cellular fluorescence was measured with an NC-3000 image cytometer using NC-SlideA8 (ChemoMetec, Allerod, Denmark). The NC-3000 software (ChemoMetec, Allerod, Denmark) was used for image acquisition, image analysis and quantification and data visualization.
# VEGFR-2 = target: T2, VEGFR-2 (Homo sapiens, UniProt P35968); assay: In vitro kinase assay (HotSpot, 33P); format: biochemical; settings: ATP 10.0 μM; for inhibition at 0.05 µM: 50 nM compound
# T2 construct: purchased Reaction Biology Corporation
# T2 sequence (P35968 20-1356): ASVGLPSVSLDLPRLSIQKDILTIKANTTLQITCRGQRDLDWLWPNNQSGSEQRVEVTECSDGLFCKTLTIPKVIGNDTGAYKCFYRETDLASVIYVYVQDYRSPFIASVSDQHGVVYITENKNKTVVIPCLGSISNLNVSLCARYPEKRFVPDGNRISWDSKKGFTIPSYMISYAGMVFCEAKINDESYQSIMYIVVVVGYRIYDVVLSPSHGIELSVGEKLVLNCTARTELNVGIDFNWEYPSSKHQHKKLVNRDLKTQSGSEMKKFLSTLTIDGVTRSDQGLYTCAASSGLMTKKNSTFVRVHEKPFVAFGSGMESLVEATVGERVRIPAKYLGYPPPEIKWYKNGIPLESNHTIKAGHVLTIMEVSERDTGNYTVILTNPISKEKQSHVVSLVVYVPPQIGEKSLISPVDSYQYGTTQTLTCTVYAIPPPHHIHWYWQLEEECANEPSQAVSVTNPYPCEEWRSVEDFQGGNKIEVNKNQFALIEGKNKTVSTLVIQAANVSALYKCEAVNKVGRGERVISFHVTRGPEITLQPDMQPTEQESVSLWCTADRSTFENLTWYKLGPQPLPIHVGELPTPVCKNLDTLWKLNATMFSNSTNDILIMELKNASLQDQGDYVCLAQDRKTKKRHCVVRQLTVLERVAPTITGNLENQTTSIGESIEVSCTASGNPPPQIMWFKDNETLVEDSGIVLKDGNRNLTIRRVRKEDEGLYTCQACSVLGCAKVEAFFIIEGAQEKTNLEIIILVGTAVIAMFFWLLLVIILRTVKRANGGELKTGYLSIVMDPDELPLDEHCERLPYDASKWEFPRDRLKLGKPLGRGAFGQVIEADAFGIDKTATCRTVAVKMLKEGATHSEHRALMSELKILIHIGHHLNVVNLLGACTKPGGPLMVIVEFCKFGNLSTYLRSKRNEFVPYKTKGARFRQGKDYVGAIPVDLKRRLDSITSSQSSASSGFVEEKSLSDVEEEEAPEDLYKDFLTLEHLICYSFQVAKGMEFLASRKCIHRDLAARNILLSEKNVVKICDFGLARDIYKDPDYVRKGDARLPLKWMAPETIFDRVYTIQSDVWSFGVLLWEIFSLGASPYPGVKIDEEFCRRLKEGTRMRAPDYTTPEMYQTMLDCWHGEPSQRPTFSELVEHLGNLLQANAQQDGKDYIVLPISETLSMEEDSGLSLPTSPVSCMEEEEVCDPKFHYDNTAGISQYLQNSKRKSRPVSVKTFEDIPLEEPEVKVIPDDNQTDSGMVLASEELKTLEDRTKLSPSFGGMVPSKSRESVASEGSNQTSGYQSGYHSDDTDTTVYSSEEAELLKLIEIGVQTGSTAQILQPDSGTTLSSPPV
# Method: (§1) Briefly, specific kinase and substrate and required cofactors were prepared in reaction buffer. Test compounds were added into the reaction, after 20 min, a mixture of ATP (Sigma, St. Louis, MO, USA) and ^33P ATP (Perkin Elmer, Waltham, MA, USA) was added to make a final concentration of 10.0 μM. Reactions were stood at room temperature for 120 min, and spot the reactions onto P81 ion exchange filter paper (Whatman Inc., Piscataway, NJ, USA). Unbound phosphate was removed by extensive washing of filters in 0.1% phosphoric acid. Kinase activity data was reported as the percent remaining kinase activity in test compounds compared to solvent control (DMSO).
# PDGFRβ = target: T3, PDGFRβ (Homo sapiens, UniProt P09619); assay: In vitro kinase assay (HotSpot, 33P); format: biochemical; settings: ATP 10.0 μM; for inhibition at 0.05 µM: 50 nM compound
# T3 construct: purchased Reaction Biology Corporation
# T3 sequence (P09619 33-1106): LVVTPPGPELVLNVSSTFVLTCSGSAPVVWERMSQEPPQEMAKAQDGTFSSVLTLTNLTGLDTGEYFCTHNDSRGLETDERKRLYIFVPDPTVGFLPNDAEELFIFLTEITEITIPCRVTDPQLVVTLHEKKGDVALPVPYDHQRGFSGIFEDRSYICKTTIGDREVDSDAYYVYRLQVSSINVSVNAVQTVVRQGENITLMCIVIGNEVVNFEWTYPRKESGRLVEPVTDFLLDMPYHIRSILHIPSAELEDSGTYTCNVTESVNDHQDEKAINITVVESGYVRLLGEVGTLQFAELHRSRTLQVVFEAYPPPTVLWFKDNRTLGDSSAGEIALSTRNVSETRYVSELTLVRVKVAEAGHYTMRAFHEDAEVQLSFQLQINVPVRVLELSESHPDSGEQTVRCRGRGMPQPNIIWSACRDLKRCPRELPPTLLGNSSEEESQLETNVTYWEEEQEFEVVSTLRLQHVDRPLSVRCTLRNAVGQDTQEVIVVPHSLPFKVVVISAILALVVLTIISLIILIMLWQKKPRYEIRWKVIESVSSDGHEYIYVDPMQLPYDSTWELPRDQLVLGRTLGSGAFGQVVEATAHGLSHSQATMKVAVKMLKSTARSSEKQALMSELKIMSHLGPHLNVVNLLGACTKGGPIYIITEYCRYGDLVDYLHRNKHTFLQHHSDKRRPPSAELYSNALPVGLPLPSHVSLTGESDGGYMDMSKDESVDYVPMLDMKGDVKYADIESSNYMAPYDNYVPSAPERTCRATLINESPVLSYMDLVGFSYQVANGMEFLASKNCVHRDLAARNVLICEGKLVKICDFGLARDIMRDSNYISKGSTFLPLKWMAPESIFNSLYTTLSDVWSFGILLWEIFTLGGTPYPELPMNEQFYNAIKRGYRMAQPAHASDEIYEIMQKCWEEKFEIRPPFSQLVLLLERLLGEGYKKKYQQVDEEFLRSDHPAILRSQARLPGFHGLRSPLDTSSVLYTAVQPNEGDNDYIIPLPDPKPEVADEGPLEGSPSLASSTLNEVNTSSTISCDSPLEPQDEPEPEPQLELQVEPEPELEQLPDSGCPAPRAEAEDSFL
# Method: as §1
# NCI-H460 = assay: Cell proliferation assay (MTT); format: cell-based, human; settings: for IC50: Homo sapiens, NCI-H460, MTT, 72 h incubation; for Selective Index (SI) NCI-H460: relative to Detroit 551 normal fibroblasts
# Method: (§2) At the end of the incubation, cell viability was determined by 3-(4,5-dimethylthiazol-2-yl)-2,5-diphenyl tetrazolium bromide (MTT). The MTT formazan crystals were dissolved by DMSO, and the absorbance at 570 nm using a microplate spectrophotometer (Thermo Fisher Scientific, Waltham, MA, USA).
# HCT116 = assay: Cell proliferation assay (MTT); format: cell-based, human; settings: for IC50: Homo sapiens, HCT-116, MTT, 72 h incubation; for Selective Index (SI) HCT116: relative to Detroit 551 normal fibroblasts
# Method: as §2
# 786-O = assay: Cell proliferation assay (MTT); format: cell-based, human; settings: for IC50: Homo sapiens, 786-0, MTT, 72 h incubation; for Selective Index (SI) 786-O: relative to Detroit 551 normal fibroblasts
# Method: as §2
# [1] = system: Detroit 551, HCT116, NCI-H460 and 786-O cell lines; assay: Acute cytotoxicity (WST-8, Cell-Counting-Kit-8); format: cell-based, human; settings: 10 μM, 6 h, WST-8, all tested cell lines
# Method: Cells were seeded at 5000 cells/well on a 96-well plate for 24 h. The indicated compounds in different concentration (100 μL) were added to cells. Post 6 h, old medium was aspirated, and cells were washed three times with PBS. WST-8 (Dojindo, Rockville, MD, USA) (10 µL) was added to each well, and the absorbance of the plate was recorded at 450 nm on a microplate spectrophotometer (Thermo Fisher Scientific, Waltham, MA, USA).
Compound,IC50 (HUVECs) [nM],IC50 (Detroit 551) [nM],inhibition at 1 µM (aurora A) [%],cell cycle profile effect (HCT116 cells; 5.0 μM),melting point [°C],inhibition at 0.05 µM (VEGFR-2) [%],IC50 (VEGFR-2) [nM],inhibition at 0.05 µM (PDGFRβ) [%],IC50 (PDGFRβ) [nM],IC50 (NCI-H460) [nM],IC50 (HCT116) [nM],Selective Index (SI) HCT116 (HCT116),IC50 (786-O) [nM],Selective Index (SI) 786-O (786-O),"tube formation IC50, fold stronger than sunitinib (HUVECs; vs sunitinib)",cell cycle profile effect (HCT116 cells; 1.0 μM),Selective Index (SI) NCI-H460 (NCI-H460),"anti-proliferation potency against HCT116, fold stronger than 8 (HCT116; vs 8 (C(5)-H)) [fold]","anti-proliferation potency against HCT116, fold stronger than sunitinib (HCT116; vs sunitinib)",acute cellular toxicity [1]
"CCN(CC)CCN1Cc2[nH]c(/C=C3\C(=O)Nc4ccccc43)c(C)c2C1=O [Compound 8, (Z)-3-((5-(2-(Diethylamino)ethyl)-3-methyl-4-oxo-1,4,5,6-tetrahydropyrrolo[3,4-b]pyrrol-2-yl)methylene)indolin-2-one]",310 ± 15,> 10000,95.9,increase phase of polyploid,167 to 168,56,30.2,64,22.4,> 10000,4250 ± 1880,>2.35,> 10000,,,,,,,
"CCN(CC)CCN1Cc2[nH]c(/C=C3\C(=O)Nc4ccc(F)cc43)c(C)c2C1=O [Compound 9, (Z)-3-((5-(2-(Diethylamino)ethyl)-3-methyl-4-oxo-1,4,5,6-tetrahydropyrrolo[3,4-b]pyrrol-2-yl)methylene)-5-fluoroindolin-2-one]",367 ± 16,> 10000,93.1,G0/G1 cell cycle arrest,245 to 246,35,111,36,97.5,> 10000,2940 ± 660,>3.4,> 10000,,,,,,,
"CCN(CC)CCN1Cc2[nH]c(/C=C3\C(=O)Nc4ccc(Cl)cc43)c(C)c2C1=O [Compound 10, (Z)-5-Chloro-3-((5-(2-(diethylamino)ethyl)-3-methyl-4-oxo-1,4,5,6-tetrahydropyrrolo[3,4-b]pyrrol-2-yl)methylene)indolin-2-one]",299 ± 70,> 10000,93.7,G0/G1 cell cycle arrest,252 to 253,58,35,64,24.9,> 10000,3090 ± 700,>3.23,7300 ± 1200,>1.37,,,,,,
"CCN(CC)CCN1Cc2[nH]c(/C=C3\C(=O)Nc4ccc(Br)cc43)c(C)c2C1=O [Compound 11, (Z)-5-Bromo-3-((5-(2-(diethylamino)ethyl)-3-methyl-4-oxo-1,4,5,6-tetrahydropyrrolo[3,4-b]pyrrol-2-yl)methylene)indolin-2-one]",179 ± 29,> 10000,93.1,,266 to 267,64,24.7,68,16.1,6570 ± 1640,1050 ± 180,>9.52,7060 ± 300,>1.42,approximately 2 fold,increase phase of polyploid,>1.52,,,
"CCN(CC)CCN1Cc2[nH]c(/C=C3\C(=O)Nc4ccc(I)cc43)c(C)c2C1=O [Compound 12, (Z)-3-((5-(2-(Diethylamino)ethyl)-3-methyl-4-oxo-1,4,5,6-tetrahydropyrrolo[3,4-b]pyrrol-2-yl)methylene)-5-iodoindolin-2-one]",313 ± 37,9210 ± 1610,92.9,,267 to 268,58,35.1,62,29.3,2950 ± 830,420 ± 160,21.93,7760 ± 290,1.19,,G0/G1 cell cycle arrest,3.12,~10,approximately 8 fold,
"CCN(CC)CCNC(=O)c1c(C)[nH]c(/C=C2\C(=O)Nc3ccc(F)cc32)c1C [Sunitinib, sunitinib, reference compound]",387 ± 16,,,G0/G1 cell cycle arrest,,,,44,,6230 ± 570,3420 ± 570,,6270 ± 670,,,,,,,nearly free from acute cellular toxicity
